Laboratory results from ChEMBL document CHEMBL3352601, “Discovery of potent iminoheterocycle BACE1 inhibitors” (Bioorg Med Chem Lett, 2014).
Calls of active or inactive are those of the source. No cut-off for these calls is given here.

Key:
[1] = biological target: Cathepsin D (Homo sapiens, UniProt P07339)
Description: Inhibition of cathepsin-D (unknown origin)

[2] = biological target: T1, Beta-secretase 1 (Homo sapiens, UniProt P56817)
Description: Inhibition of purified human BACE1 by FRET assay

[3] = biological target: T1, Beta-secretase 1; test: Inhibition of BACE1-mediated amyloid beta 40 production in HEK293-APPswe/lon cells by whole cell assay in presence of P-gp inhibitor; format: cell-based
[4] = in vivo; conditions: rat, plasma, sc, 10 mg/kg
[5] = species on record: Mus musculus; test: Reduction of cortical amyloid beta 40 level in CRND8-APP mouse model; format: functional, organism-based
[6] = test system: Rattus norvegicus; test: Reduction of amyloid beta 40 level in rat plasma at 30 mg/kg, po relative to control; format: functional; parameters: scale not given: the % may be the effect or the level left
[7] = biological target: T1, Beta-secretase 1; test: Inhibition of BACE1-mediated amyloid beta 40 production in HEK293-APPswe/lon cells by whole cell assay; format: cell-based

Cathepsin D, sequence (P07339 65-162 limits assumed): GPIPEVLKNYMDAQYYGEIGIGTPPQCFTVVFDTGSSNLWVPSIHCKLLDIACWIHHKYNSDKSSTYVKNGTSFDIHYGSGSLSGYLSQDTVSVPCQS
Cathepsin D, sequence (P07339 169-412 limits assumed): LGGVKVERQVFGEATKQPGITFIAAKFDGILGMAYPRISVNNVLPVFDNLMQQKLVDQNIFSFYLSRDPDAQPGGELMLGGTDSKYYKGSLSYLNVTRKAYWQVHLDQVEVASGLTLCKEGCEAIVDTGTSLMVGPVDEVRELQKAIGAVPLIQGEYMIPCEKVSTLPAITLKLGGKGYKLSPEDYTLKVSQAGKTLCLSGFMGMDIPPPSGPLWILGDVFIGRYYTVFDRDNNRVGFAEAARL
T1 sequence (P56817 whole entry): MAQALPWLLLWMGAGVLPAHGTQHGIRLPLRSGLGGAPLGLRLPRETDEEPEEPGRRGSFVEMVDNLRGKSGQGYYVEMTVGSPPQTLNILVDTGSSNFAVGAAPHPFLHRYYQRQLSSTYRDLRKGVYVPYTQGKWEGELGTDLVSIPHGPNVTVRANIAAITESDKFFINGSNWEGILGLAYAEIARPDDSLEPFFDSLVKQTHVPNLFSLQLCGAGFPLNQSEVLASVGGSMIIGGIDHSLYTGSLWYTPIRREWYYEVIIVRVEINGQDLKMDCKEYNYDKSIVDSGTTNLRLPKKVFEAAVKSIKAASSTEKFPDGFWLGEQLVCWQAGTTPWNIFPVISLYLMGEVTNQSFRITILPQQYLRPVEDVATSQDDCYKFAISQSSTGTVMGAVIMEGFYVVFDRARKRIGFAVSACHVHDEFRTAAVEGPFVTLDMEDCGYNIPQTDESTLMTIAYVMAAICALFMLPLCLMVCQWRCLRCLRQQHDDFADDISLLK

Row | SMILES | Ki [1] [µM] | Ki [2] [µM] | also measured
1 | CN1C(=N)N[C@](CCC2CCCCC2)(C[C@H]2CCC[C@@H](NC3CCCCC3)C2)C1=O | 63.5 | 0.23 | 
2 | CCCCC(=O)N1CCC[C@H](C[C@@]2(CCC3CCCCC3)NC(=N)N(C)C2=O)C1 | 44 | 3.2 | 
3 | CN1C(=N)N[C@](CCC2CCCCC2)(C[C@@H]2CCCN(C(=O)CC3CCCC3)C2)C1=O | 8.5 |  | 
4 | CCCCCN1CCC[C@H](C[C@@]2(CCC3CCCCC3)NC(=N)N(C)C2=O)C1 | > 100 | 7.6 | 
5 | CN1C(=N)N[C@](CCC2CCCCC2)(C[C@@H]2CCCN(C(=O)OC(C)(C)C)C2)C1=O | 33 | 41 | 
6 | CCCCS(=O)(=O)N1CCC[C@H](C[C@@]2(CCC3CCCCC3)NC(=N)N(C)C2=O)C1 | 25.5 | 6.3 | 
7 | CN1C(=N)N[C@](CCC2CCCCC2)(C[C@H]2CCCNC2)C1=O | > 100 | 8.5 | 
8 | CN1C(=N)N[C@](CCC2CCCCC2)(C[C@H]2CCC[C@@H](NC(=O)Nc3ccccc3Cl)C2)C1=O | 8.5 | 0.301 | 
9 | CCCCC(=O)N1CC[C@H](C[C@@]2(CCC3CCCCC3)NC(=N)N(C)C2=O)C1 | 23 | 0.49 | 
10 | CCCCC(=O)N1CCC[C@@H](C[C@@]2(CCC3CCCCC3)NC(=N)N(C)C2=O)C1 | 28 | 17 | 
11 | CN1C(=N)N[C@](CCC2CCCCC2)(C[C@H]2CCC[C@@H](NC(=O)Nc3ccc4ccccc4n3)C2)C1=O | 25 | 0.022 | EC50 [3]: 0.11 µM; AUC(0-t) at 6 h [4]: 0.306 µM·h; Activity [5]: inactive; Activity [6]: 55%; EC50 [7]: 0.258 µM
12 | CN1C(=N)N[C@](CCC2CCCCC2)(C[C@H]2CCCN(C(=O)OC(C)(C)C)C2)C1=O | > 100 | 29 | 
13 | CN1C(=N)N[C@](CCC2CCCCC2)(C[C@H]2CCC[C@@H](NCC3CC3)C2)C1=O | 53.3 | 0.48 | 
14 | CN1C(=N)N[C@](CCC2CCCCC2)(C[C@@H]2CCCNC2)C1=O | > 100 | 66 | 
15 | CCCCC(=O)N1CC[C@@H](C[C@@]2(CCC3CCCCC3)NC(=N)N(C)C2=O)C1 |  | 17.4 | 
16 | CN1C(=N)N[C@](CCC2CCCCC2)(C[C@H]2CCC[C@@H](NC(=O)Nc3ccc(Cl)cc3)C2)C1=O | > 100 | 0.01 | 

More lines, in order of falling Ki [1], values ahead:

Row | Ki [1] [µM] | Ki [2] [µM] | SMILES | also measured
17 | 7.5 | 0.014 | CN1C(=N)N[C@](CCC2CCCCC2)(C[C@H]2CCC[C@@H](NC(=O)Nc3cnc4ccccc4n3)C2)C1=O | 
18 | 6.9 | 0.003 | CN1C(=N)N[C@](CCC2CCCCC2)(C[C@H]2CCC[C@@H](NC(=O)Nc3ccc(C#N)cc3)C2)C1=O | 
19 | 6 | 0.138 | CN1C(=N)N[C@](CCC2CCCCC2)(C[C@H]2CCC[C@@H](NC(=O)NC3CCCCC3)C2)C1=O | 
20 | 3.8 | 0.13 | CN1C(=N)N[C@](CCC2CCCCC2)(C[C@H]2CCC[C@@H](NC(=O)c3ccccc3)C2)C1=O | 
21 | 3.5 | 0.585 | CN1C(=N)N[C@](CCC2CCCCC2)(C[C@H]2CCC[C@@H](NC(=O)Cc3ccccc3)C2)C1=O | 
22 | 2.8 | 8.5 | CCCNC(=O)N1CCC[C@H](C[C@@]2(CCC3CCCCC3)NC(=N)N(C)C2=O)C1 | 
23 | 2.5 | 0.01 | COc1ccc(NC(=O)N[C@@H]2CCC[C@H](C[C@@]3(CCC4CCCCC4)NC(=N)N(C)C3=O)C2)cc1 | 
24 | 2.4 | 0.276 | COc1ccccc1NC(=O)N[C@@H]1CCC[C@H](C[C@@]2(CCC3CCCCC3)NC(=N)N(C)C2=O)C1 | 
25 | 0.87 |  | CN1C(=N)N[C@](CCC2CCCCC2)(C[C@H]2CCCN(C(=O)CC3CCCC3)C2)C1=O | 
